# Reference: paper PMC12454639, “Direct disassembly of α-syn preformed fibrils into α-syn monomers by an all-D-peptide” (NPJ Parkinson's Disease, 2025)
# Legend:
# small α-syn PFF seeds = test: Seeded ThT aggregation assay; assay type: biochemical; settings: discussion statement
# Description: The Thioflavin T (ThT) assay is commonly used for the visualization of α-syn fibrilization, since the dye ThT is able to bind to the amyloidogenic cross-β-sheet proportions of fibril structures. Recombinant α-syn was thawed on ice and centrifuged for 30 min at 21,000 × g and 4 °C. The concentration of the supernatant was determined as described previously. Lyophilized D-peptides were thawed at RT for 1 h and dissolved in 500 µl PBS pH 7.4. After centrifugation for 30 min at 21,000 × g the supernatant concentration was determined by UV–vis using the corresponding extinction coefficient at A280. All ThT assay experiments were performed at 37 °C with 15 µM ThT and 0.05% sodium azide (w/v) in PBS pH 7.4 if not otherwise stated. ThT fluorescence was monitored with bottom optics at λex = 448 nm and λem = 482 nm in a fluorescence plate reader with orbital averaging on 3 mm (Clariostar or Polarstar Optima, BMG labtech, GE). Prior to measurement start, 120 µl sample solution was transferred to a non-binding 96-half area well plate with transparent flat bottom (Corning, USA). One borosilicate glass bead (d = 3.0 mm, Hilgenberg, GE) was added to each well for all de novo aggregation assays. For seeded aggregation assays, no bead was used, and samples were incubated under quiescent conditions. Wells that surrounded the sample wells were filled with the same volume of buffer to improve heat distribution. Experiments were performed with five replicates (n = 5) if not otherwise stated.
# ThT assay was used for different purposes. […] Lag-time and t½ were calculated as described previously. […] Measurements were taken every 5 min (n = 3).
# small α-syn PFF seeds were prepared as described previously with some modifications. First, insoluble PFF were produced by incubation of 300 µM recombinant α-syn in a LoBind reaction tube (Eppendorf GmbH, GE) with one borosilicate glass bead (d = 3.0 mm; Hilgenberg, DE) in 20 mM NaPi, pH 7.0, 150 mM NaCl, 0.05% (w/v) sodium azide for one week at 37 °C. The insoluble PFF were harvested by ultracentrifugation at 100,000 × g for 30 min at 4 °C, and the pellet was washed several times with 20 mM NaPi, pH 7.0, 150 mM NaCl. The monomer equivalent concentration was determined by measuring the α-syn concentration in the supernatant after the first centrifugation and subtracting it from the start concentration for fibrilization. […]
# ThT fluorescence progression was measured in a 96-well non-binding half-area plate (Corning, USA) with a FLUOStar platereader (BMG labtech, GE) at λex = 448 nm and λem = 482 nm. […] 10 µM α-syn monomer was incubated with 5, 10 and 20 µM peptide at 37 °C, adding one borosilicate glass bead per well (d = 3.0 mm, Hilgenberg, GE) with continuous orbital shaking at 300 rpm in between reads. […]
# PC12 cells = assay type: cell-based; settings: 15 µM peptide with 30 nM PFF; n = 4
# Description: PC12 cells (Leibniz Institute DSMZ, GE) were cultivated on collagen A-coated (Biochrom GmbH, GE) tissue culture flasks in RPMI 1640 medium supplemented with 5% fetal calf serum and 10% horse serum in a 95% humidified atmosphere with 5% CO2 at 37 °C. 10,000 cells per well in a volume of 100 µl were seeded on collagen A-coated 96-well plates (Thermo Fisher Scientific, USA) and were incubated for 24 h at 37 °C and 300 rpm in a thermo cycler. […] In addition, 15 µM of the peptides alone, cell media, buffer without peptides and 0.1% Triton X-100 (cytotoxic compound) served as controls. After further incubation in a 95% humidified atmosphere with 5% CO2 at 37 °C for 24 h, cell viability was measured using the Cell Proliferation Kit I (MTT) (Roche Applied Science, CH) according to the manufacturer’s protocol. The MTT formazan product was quantified by measuring the absorbance at 570 nm corrected by subtraction of the absorbance at 660 nm in a FLUOStar Optima plate reader (BMG Labtech, GE). All results were normalized to untreated cells grown in medium only. Test on significance was performed using one-way ANOVA with Bonferroni post hoc analysis (OriginPro 2020, OriginLab, USA; n = 4).
# Test on significance was performed using one-way ANOVA with Bonferroni post hoc analysis: * […], *** p ≤ 0.01. Mean data are shown with ±SD (n = 4). While the cell viability was reduced by 50 % in the presence of 30 nM soluble small α-syn PFF alone, no toxic effect of the compounds on PC12 was observed. […] Thus, similar cell viability saving effects were found for SVD-1a using a 30-fold lower concentration.
# monomeric α-syn = test: Affinity of negative-control peptide to monomeric α-syn (method not given); assay type: binding; settings: negative-control peptide kgvgnleyqlwalegk-NH2; method not stated
# [1] = system: α-synA53T–YFP cells (HEK293T)
# [2] = system: α-synA53T–YFP (HEK293T cells); test: Seeded intracellular aggregation in α-synA53T–YFP cells; assay type: cell-based, human; settings: day 3
# Source text: Fig. 5 SVD-1a inhibits seeded α-syn aggregation in cells. To validate the inhibitory effect of SVD-1a in cells, we used the α-synA53T–YFP cell system, which stably expresses human α-syn with the familial A53T mutation fused to YFP in HEK293T cells and enables fluorescence-based detection of aggregates that show up as highly fluorescent spots within the cells, clearly above background, intracellularly after seeding with small α-syn PFF seeds. In order to avoid interference of the peptide with the uptake of small α-syn PFF seeds, we performed a two-step transfection starting with a first transfection of the peptide and a second transfection with PFFs. […] To quantify the number of cells with aggregates in our images and to avoid experimental bias, we used a fully automated algorithm for image analysis. […] One asterisk denotes p values < 0.05 and three asterisks a p value < 0.001. Error bars indicate standard deviation. […] Treatment with increasing concentrations of SVD-1a, here imaged at 25 µM, led to a concentration-dependent reduction in the number of cells with aggregates (H-J). Panels B, E, and H show nuclei stained with Hoechst 33342. Panels C, F, and I show αSynA53T–YFP fluorescence. Panels D, G, and J show merged images. The scale bar in J represents 100 µm and applies to all panels. The viability of the cells was not reduced by transfection with seeds or in SVD-1a, as shown in Supplementary Fig. 15. Confirmation that highly fluorescent aggregates contain α-syn is shown in Supplementary Fig. 14 by co-immunostaining with syn-211 antibody, anti-α-syn (phospho S129) antibody and 5G4 antibody.
# A construct encoding full-length A53T-mutated human α-syn fused with YFP at the C-terminus was synthesized and introduced into the pMK–RQ expression vector (GeneArt; Thermo Fisher Scientific, USA). The α-synA53T–YFP construct was subcloned into the pIRESpuro3 vector (Clontech; Takara Bio, JPN) using NheI (5′) and NotI (3′) restriction sites. HEK293T cells (American Type Culture Collection) were cultured in high-glucose Dulbecco’s modified Eagle’s medium (DMEM; Sigma-Aldrich, USA) supplemented with 10% fetal calf serum (Sigma-Aldrich, USA), and 50 units/ml penicillin as well as 50 μg/ml streptomycin (Sigma-Aldrich, USA). Cells were cultured in a humidified atmosphere of 5% CO2 at 37 °C. Cells plated in DMEM were transfected using Lipofectamine 2000 (Invitrogen; Thermo Fisher Scientific, USA). Stable cells were selected in DMEM containing 1 μg/ml puromycin (EMD Millipore, USA). Monoclonal lines were generated by fluorescence-activated cell sorting of a polyclonal cell population in 96-well plates using a MoFlo XDP cell sorter (Beckman Coulter, USA). Finally, the clonal cell line B5 was selected from among 24 clonal cell lines and is referred to as αSynA53T–YFP cells. Peptides were incubated with 1.5% Lipofectamine 2000 in OptiMEM for 2 h at room temperature. […] On day 3 the cells were imaged with an IN Cell Analyzer 6500HS System (Cytiva, USA) using the blue and green fluorescence channel, and analyzed using IN Carta Image Analysis Software (Cytiva, USA) after an algorithm was established to identify intracellular aggregates in living cells. For each condition, we used four wells and took 16 images per well, which were analyzed by a fully automated algorithm to avoid bias. […]
substance,measurement,setting,value
"ihyawtphtrhlqewerrrrr-NH2 [SVD-1_scrambled+5r, reference compound]",effect of control peptide relative to SVD-1 in seeded assay,small α-syn PFF seeds,improved effects compared to the parental sequence SVD-1 in the seeded assay
"ihyawtphtkhmqewe-NH2 [SVD-1_scrambled, reference compound]",cell viability saving effect,PC12 cells,Slight increase of cell viability saving effect
"kgvgnleyqlwalegk-NH2 [negative-control peptide, reference compound]",affinity to monomeric α-syn,monomeric α-syn,no affinity to monomeric α-syn
same,"cell viability, PFF-seeded α-synA53T–YFP cells",[1],did not induce significantly different luminescence in comparison to unseeded cells or seeded cells without peptide treatment
same,aggregate-positive cells,"[2]; 25 µM peptide, transfected, then 30 nM small α-syn PFF seeds",85%
same,inhibition of intracellular seeded α-syn aggregation,"[2]; peptide transfection, then 30 nM PFF seeds",not
